Experimental data as given in ChEMBL document CHEMBL1148662, “Activation of mitogen activated protein kinase (MAPK) during D-galactosamine intoxication in the rat liver” (2006).
Calls of active or inactive are those of the source. No cut-off for these calls is given here.

Experiments:
Rattus norvegicus [1] = experiment: Increase in plasma glutamate pyruvate transaminase level in Wistar rat at 1 g/kg, ip after 1.5 hrs relative to control; type: functional
Rattus norvegicus [2] = experiment: Increase in hepatic vitamin C level in Wistar rat at 1 g/kg, ip after 6 hrs relative to control; type: functional
Rattus norvegicus [3] = experiment: Increase in plasma glutamate oxaloacetate transaminase level in Wistar rat at 1 g/kg, ip after 24 hrs relative to control; type: functional
Rattus norvegicus [4] = experiment: Increase in plasma glutamate oxaloacetate transaminase level in Wistar rat at 1 g/kg, ip after 6 hrs relative to control; type: functional
Rattus norvegicus [5] = experiment: Increase in plasma glutamate pyruvate transaminase level in Wistar rat at 1 g/kg, ip after 6 hrs relative to control; type: functional
Rattus norvegicus [6] = experiment: Increase in plasma glutamate pyruvate transaminase level in Wistar rat at 1 g/kg, ip after 3 hrs relative to control; type: functional
Rattus norvegicus [7] = experiment: Increase in phosphorylated ERK level in Wistar rat at 1 g/kg, ip after 3 hrs relative to control; type: functional, organism-based
Rattus norvegicus [8] = experiment: Increase in plasma glutamate oxaloacetate transaminase level in Wistar rat at 1 g/kg, ip after 1.5 hrs relative to control; type: functional
Rattus norvegicus [9] = experiment: Increase in phosphorylated p38 MAPK level in Wistar rat at 1 g/kg, ip after 6 hrs relative to control; type: functional, organism-based
Rattus norvegicus [10] = experiment: Increase in hepatic vitamin C level in Wistar rat at 1 g/kg, ip after 24 hrs relative to control; type: functional
Rattus norvegicus [11] = experiment: Increase in plasma glutamate oxaloacetate transaminase level in Wistar rat at 1 g/kg, ip after 12 hrs relative to control; type: functional
Rattus norvegicus [12] = experiment: Increase in hepatic vitamin C level in Wistar rat at 1 g/kg, ip after 1.5 hrs relative to control; type: functional
Rattus norvegicus [13] = experiment: Increase in plasma glutamate pyruvate transaminase level in Wistar rat at 1 g/kg, ip after 12 hrs relative to control; type: functional
Rattus norvegicus [14] = experiment: Increase in phosphorylated JNK level in Wistar rat at 1 g/kg, ip after 3 hrs relative to control; type: functional, organism-based
Rattus norvegicus [15] = experiment: Increase in plasma glutamate oxaloacetate transaminase level in Wistar rat at 1 g/kg, ip after 3 hrs relative to control; type: functional
Rattus norvegicus [16] = experiment: Increase in hepatic vitamin C level in Wistar rat at 1 g/kg, ip after 3 hrs relative to control; type: functional
Rattus norvegicus [17] = experiment: Increase in hepatic vitamin C level in Wistar rat at 1 g/kg, ip after 12 hrs relative to control; type: functional
Rattus norvegicus [18] = experiment: Increase in plasma glutamate pyruvate transaminase level in Wistar rat at 1 g/kg, ip after 24 hrs relative to control; type: functional

In the case of `N[C@H]1C(O)O[C@H](CO)C(O)[C@@H]1O` (single isomer, unassigned) [GLUCOSAMINE], the Activity (Rattus norvegicus [1]) is reported as 25.8 nmol/g, the Activity (Rattus norvegicus [2]) is reported as 1118 nmol/g and the Activity (Rattus norvegicus [3]) is reported as 2560 nmol/g. For the same compound, the Activity (Rattus norvegicus [4]) was 517 nmol/g, the Activity (Rattus norvegicus [5]) was 295 nmol/g and the Activity (Rattus norvegicus [6]) was 49.7 nmol/g. For the same compound, the Activity (Rattus norvegicus [7]) was “Active”, the Activity (Rattus norvegicus [8]) was 52.3 nmol/g and the Activity (Rattus norvegicus [9]) was “Active”. The Activity (Rattus norvegicus [10]) was 978 nmol/g, the Activity (Rattus norvegicus [11]) was 793 nmol/g and the Activity (Rattus norvegicus [12]) was 1571 nmol/g. The Activity (Rattus norvegicus [13]) was 426 nmol/g, the Activity (Rattus norvegicus [14]) was “Active” and the Activity (Rattus norvegicus [15]) was 124 nmol/g. The Activity (Rattus norvegicus [16]) was 1137 nmol/g, the Activity (Rattus norvegicus [17]) was 1104 nmol/g and the Activity (Rattus norvegicus [18]) was 1519 nmol/g.
